Experimental data from paper PMC12664589 (Journal of Structural Biology: X, 2025).
pKi: −log10 of the molar value.

These molecules were tested against CpNce103p (Candida parapsilosis, UniProt G8B6R8) (assay: biochemical). Settings: not given.
Type: biochemical
`NCc1ccc(S(N)(=O)=O)cc1` [Compound 2, 4-(aminomethyl)benzenesulfonamide] was tested, and the pKi was 2.50. With `O=[N+]([O-])c1ccccc1S(=O)(=O)Cl` [Compound 3, 2-Nitrobenzenesulfonyl chloride] the pKi was 3.06. Work on `C#CCCS(N)(=O)=O` [Compound 4, but-3-yne-1-sulfonamide] yielded a pKi of 3.03. For `NS(=O)(=O)c1ccccc1` [Compound 5, Benzenesulfonamide], the pKi was 3.04. In the case of `NN=C(c1ccccc1)c1ccccc1` [Compound 7, Benzophenone hydrazone], the pKi was 3.52. For `Nc1ccc(S(N)(=O)=O)cc1` [Compound 9, Sulfanilamide], the pKi was 3.08. Work on `[N-]=[N+]=NCC(=O)NCCc1ccc(S(N)(=O)=O)cc1` [Compound 10, 2-azido-N-(4-sulfamoylphenethyl)acetamide] yielded a pKi of 2.82. For `NS(=O)(=O)c1ccc([N+](=O)[O-])cc1` [Compound 13, 4-Nitrobenzenesulfonamide], the pKi was 3.73. `NS(=O)(=O)c1cc(C(=O)O)c(NCc2ccccc2)cc1Cl` [Compound 14, 2-(benzylamino)-4-chloro-5-sulfamoylbenzoic acid] gave a pKi of 3.42. For `N[C@@H](Cc1c[nH]c2ccccc12)C(=O)O` [Compound 15, L-Tryptophan], the pKi was 3.07. In the case of `NS(=O)(=O)C(F)(F)F` [Compound 16, Trifluoromethanesulfonamide], the pKi was 5.66.

Same assay, conditions: pH 7.5; read-out: Ki
`NS(N)(=O)=O` [Compound 8, Sulfamide] showed a pKi of 2.80.
